Source: PMC6155227 (Molecules : A Journal of Synthetic Chemistry and Natural …, 2017)

Experiments:
[1] = system: H5N1(A/Vietnam/1203/2004) strain; assay: microbe, parasite or virus in culture; assay type: cell-based, influenza virus A/Vietnam/1203/2004 (H5N1); details: Influenza A virus, H5N1, MDCK
MDCK cells = details: dog
avian influenza virus = details: mouse, in vivo; cited from earlier work
[2] = system: porcine reproductive and respiratory syndrome virus (PRRSV); details: cited from earlier work

For `CCCC(=O)c1c(O)c(CC2=C(O)C(C)(C)C(O)=C(C(C)=O)C2=O)c(O)c(Cc2c(O)c(CC3=C(O)C(C)(C)C(O)=C(C(C)=O)C3=O)c(O)c(C(=O)CCC)c2O)c1O` [Dryocrassin ABBA, dryocrassin ABBA], the EC50 ([1]; 72 h, read-out: EC50 anti-influenza virus activity) is given as 16.6 µM, the “50% toxicity concentration (TC50)” value (MDCK cells) is given as “greater than 400 μM” and the “protection of infected mice” value (avian influenza virus) is given as “protect mice infected with avian influenza virus”.

For `CCCC(=O)c1c(O)c(CC2=C(O)C(C)(C)C(O)=C(C(C)=O)C2=O)c(O)c(CC2=C(O)C(C)(C)C(O)=C(C(C)=O)C2=O)c1O` [Filixic acid ABA, filixic acid ABA], the inhibition at 100 µM ([1]; read-out: inhibition rate) was < 50% and the maximal non-cytotoxic concentration (MDCK cells) was 100 µM.

In the case of `CCCC(=O)c1c(O)c(C)c(O)c(CC2=C(O)C(C)(C)C(O)=C(C(C)=O)C2=O)c1O` [Flavaspidic acid AB, flavaspidic acid AB], the virus replication [2] is given as “inhibit replication”.
